{"source": "paper PMC5590075", "about": "“Synthesis, Antimicrobial, and Antioxidant Activities of Chalcogen-Containing Nitrone Derivatives from (R)-citronellal” (Medicines, 2017)", "key": {"[1]": {"system": "S. aureus", "design": "method as in doi:10.1016/j.lwt.2014.05.036", "settings": "cited from earlier work"}, "[2]": {"system": "S. Typhimurium", "design": "method as in doi:10.1016/j.lwt.2014.05.036", "settings": "cited from earlier work"}, "[3]": {"system": "E. coli", "design": "method as in doi:10.1016/j.lwt.2014.05.036", "settings": "cited from earlier work"}, "[4]": {"system": "S. dysenteriae", "design": "method as in doi:10.1016/j.lwt.2014.05.036", "settings": "cited from earlier work"}, "[5]": {"system": "P. fluorescens", "design": "method as in doi:10.1016/j.lwt.2014.05.036", "settings": "cited from earlier work"}, "[6]": {"system": "L. monocytogenes", "design": "method as in doi:10.1016/j.lwt.2014.05.036", "settings": "cited from earlier work"}, "[7]": {"design": "method as in doi:10.1016/j.foodcont.2011.06.017", "settings": "cited from earlier work"}, "[8]": {"design": "method as in doi:10.1016/j.foodcont.2011.06.017", "settings": "cited from earlier work", "remark": "listed apart in the source"}, "[9]": {"design": "method as in doi:10.1016/j.foodcont.2011.06.017", "settings": "cited from earlier work", "remark": "listed apart in the source"}, "[10]": {"system": "Bacillus cereus ATCC 11778", "test": "agar disk diffusion test", "assay_type": "cell-based", "settings": "Bacillus cereus, ATCC11778; B. cereus, 1.0 × 10^8 CFU.mL^−1; 20 μL compound diluted in DMSO (1:1) per 6 mm disc; streptomycin 10 µg; mean of two repetitions", "excerpt": "(§1) To evaluate the antimicrobial potential of the synthesized compounds, the following reference strains of bacteria, that are economically important in foods, were employed: Gram-positive Listeria monocytogenes ATCC 7644, Staphylococcus aureus ATCC 25923, and Bacillus cereus ATCC 11778; Gram-negative Salmonella Typhimurium ATCC 14028, Escherichia coli O157: H7 NCTC 12900 and the clinically important Pseudomonas aeruginosa ATCC 15442.\n(§2) The antimicrobial activity assay using the disk diffusion test was realized using the methodology that is recommended by the Clinical Laboratory Standards Institute (CLSI). The determination of the minimum inhibitory concentration (MIC) and minimum bactericidal concentration (MBC) was performed using the macro dilution tube method, in accordance with Rota et al., with modifications. Details of these assays are provided in the Supplemental Material. […]\n(§3) 2.1. Antimicrobial activity assay using the disk diffusion test\n(§4) The disk diffusion test followed the methodology recommended by the Clinical Laboratory Standards Institute CLSI [4]. The inoculum was standardized by standard McFarland to the concentration of 10^8 CFU.mL−1 and spread on the surface of a Petri dish containing Mueller‐Hinton (MH) agar. Then, the paper disc (6 mm) was put on a plate impregnated with 20 μL of the testing compound previously diluted in DMSO (1:1) and incubated at 37 °C for 24 hours. Zone of inhibition ≥20 mm were considered as strong inhibition, <20–12 mm as moderate inhibition, and <12 mm no inhibition. A positive control with streptomycin antibiotic (10 μg) and a negative one, with paper discs impregnated with distilled water, were used […]\n(§5) 2.4. Radical Scavenging Activity […]\n(§6) The ABTS radical scavenging activity was determined according to the method described by Erel. Different concentrations of compounds 5a–d and 10 (10–500 μ M) were mixed with the ABTS+ solution, and the decrease in the absorbance at 734 nm was recorded."}, "[11]": {"system": "Salmonella Typhimurium ATCC 14028", "test": "agar disk diffusion test", "assay_type": "cell-based", "settings": "Salmonella enterica; S. Typhimurium, 1.0 × 10^8 CFU.mL^−1; 20 μL compound diluted in DMSO (1:1) per 6 mm disc; streptomycin 10 µg; mean of two repetitions", "excerpt": "as §1, §2, §3, §4, §5, §6"}, "[12]": {"system": "Listeria monocytogenes ATCC 7644", "test": "agar disk diffusion test", "assay_type": "cell-based", "settings": "Listeria monocytogenes, ATCC7644; L. monocytogenes, 1.0 × 10^8 CFU.mL^−1; 20 μL compound diluted in DMSO (1:1) per 6 mm disc; streptomycin 10 µg; mean of two repetitions", "excerpt": "as §1, §2, §3, §4, §5, §6"}, "[13]": {"system": "Pseudomonas aeruginosa ATCC 15442", "test": "agar disk diffusion test", "assay_type": "cell-based", "settings": "Pseudomonas aeruginosa, ATCC15442; P. aeruginosa, 1.0 × 10^8 CFU.mL^−1; 20 μL compound diluted in DMSO (1:1) per 6 mm disc; streptomycin 10 µg; mean of two repetitions", "excerpt": "as §1, §2, §3, §4, §5, §6"}, "[14]": {"system": "Staphylococcus aureus ATCC 25923", "test": "agar disk diffusion test", "assay_type": "cell-based", "settings": "Staphylococcus aureus, ATCC25923; S. aureus, 1.0 × 10^8 CFU.mL^−1; 20 μL compound diluted in DMSO (1:1) per 6 mm disc; streptomycin 10 µg; mean of two repetitions", "excerpt": "as §1, §2, §3, §4, §5, §6"}, "[15]": {"system": "Escherichia coli O157: H7 NCTC 12900", "test": "agar disk diffusion test", "assay_type": "cell-based", "settings": "Escherichia coli, NCTC12900; E. coli O157:H7, 1.0 × 10^8 CFU.mL^−1; 20 μL compound diluted in DMSO (1:1) per 6 mm disc; streptomycin 10 µg; mean of two repetitions", "excerpt": "as §1, §2, §3, §4, §5, §6"}}}
{"smiles": "CC(C)=CCCC(C)(CC=O)Sc1ccc(Cl)cc1", "note": "(stereo not drawn) [3-(p-chlorophenyl)thio citronellal]", "values": [{"measurement": "MIC", "setting": "[1]", "value": 2.1, "unit": "mM"}, {"measurement": "MIC", "setting": "[2]", "value": 4.2, "unit": "mM"}, {"measurement": "MIC", "setting": "[3]", "value": 4.2, "unit": "mM"}, {"measurement": "MIC", "setting": "[4]", "value": 4.2, "unit": "mM"}, {"measurement": "MIC", "setting": "[5]", "value": 4.2, "unit": "mM"}, {"measurement": "MIC", "setting": "[6]", "value": 2.1, "unit": "mM"}]}
{"smiles": "CC(C)=CCC[C@@H](C)C(C=O)[Se]c1ccccc1", "note": "(stereo partly drawn) [3b, α-phenylselenocitronellal]", "values": [{"measurement": "activity in the ABTS assay (in words)", "setting": "[7]", "value": "inactive"}, {"measurement": "activity in the DPPH assay (in words)", "setting": "[8]", "value": "inactive"}, {"measurement": "concentrations with significant reducing power in the FRAP assay", "setting": "[9]", "value": "≥ 500", "unit": "mM"}]}
{"smiles": "[H]/N=C(/N)N[C@H]1[C@H](O)[C@@H](O)[C@H](O[C@@H]2O[C@@H](C)[C@](O)(C=O)[C@H]2O[C@@H]2O[C@@H](CO)[C@H](O)[C@@H](O)[C@@H]2NC)[C@@H](N/C(N)=N\\[H])[C@@H]1O", "note": "[Streptomycin, reference compound]", "values": [{"measurement": "zone of inhibition at 10 µg/disc", "setting": "[10]", "value": 26, "unit": "mm"}, {"measurement": "zone of inhibition at 10 µg/disc", "setting": "[11]", "value": 18, "unit": "mm"}, {"measurement": "zone of inhibition at 10 µg/disc", "setting": "[12]", "value": 21, "unit": "mm"}, {"measurement": "zone of inhibition at 10 µg/disc", "setting": "[13]", "value": 13, "unit": "mm"}, {"measurement": "zone of inhibition at 10 µg/disc", "setting": "[14]", "value": 21, "unit": "mm"}, {"measurement": "zone of inhibition at 10 µg/disc", "setting": "[15]", "value": 24, "unit": "mm"}]}
{"smiles": "CC(C)=CCC[C@@H](C)CC=O", "note": "[compound 1, (R)-citronellal]", "values": [{"measurement": "activity in the ABTS assay (in words)", "setting": "[7]", "value": "inactive"}, {"measurement": "activity in the DPPH assay (in words)", "setting": "[8]", "value": "inactive"}, {"measurement": "effect in the FRAP assay (in words)", "setting": "[9]; at the same concentrations (equal and higher than 500 mM)", "value": "did not present any effect"}]}
